Results reported in US8334261B2, “Osteopenia animal model” (Oriental Yeast Co., Ltd., priority 2006, dated 2012).

Legend:
female C57BL/6N mice = test: Producing OVX mice in a short period of time (GST-RANKL plus ovariectomy); format: in vivo, mouse
Description: 7-week-old female C57BL/6N mice were reared for 25 days. Then, GST-RANKL was intraperitoneally administered twice thereto at 1 mg/kg every 24 hours. Ovariectomy was carried out 24 hours after the 2nd administration. Further, the femur, tibia, and serum were collected from each mouse 24 hours after ovariectomy. The obtained samples were compared with the samples obtained from a group that was reared for 4 weeks after ovariectomy. In addition, PBS was administered to control groups for comparison with GST-RANKL administration groups. The PBS administration groups were subjected to sham operation (Sham) for comparison with the groups subjected to ovariectomy.
Regarding bone metabolism markers, TRAP-5b, calcium (Ca), and alkaline phosphatase (ALP) in the serum were measured. Each femur was subjected to bone density measurement with pQCT and image analysis with micro CT. After the initiation of rearing, the date of implementation of OVX or sham operation was expressed as “day X.”

[1] = tested on: 7-week-old female C57BL/6N mice; test: Single-dose administration of GST-RANKL; format: in vivo, mouse; conditions: for femur bone density decrease vs control: single dose
Description: The bone resorption markers and the osteogenesis markers in the serum were measured 12, 24, and 48 hours thereafter. Blood sampling was carried out before and immediately after GST-RANKL administration and 2, 4, 8, 12, 24, 48, and 72 hours after administration, followed by measurement of the serum human RANKL concentration by ELISA. In addition, 24 and 48 hours after administration, the femur bone density was measured with pQCT.

[2] = tested on: 7-week-old female C57BL/6N mice; test: Tibial bone morphology measurement after GST-RANKL 2 mg/kg; format: in vivo, mouse; conditions: 2 mg/kg i.p. 3 times
Description: GST-RANKL was intraperitoneally administered 3 times to groups of 7-week-old female C57BL/6N mice at 2 mg/kg every 24 hours, followed by dissection. The tibia of each mouse was subjected to toluidine blue staining and morphology measurement. A solvent (PBS) was administered to the control group in the same manner as above. The GST-RANKL intraperitoneal administration group was subjected to tibial bone morphology measurement. The unit bone mass (BV/TV), the trabecular width (Tb.Th), and the trabecular number (Tb.N) decreased by approximately 30% (p<0.03), approximately 10% (P<0.03), and approximately 20% (p<0.05), respectively, compared with those for the control group (FIGS. 29 to 31). In addition, the osteoid thickness (O.Th), the eroded surface area (ES/BS), the osteoclast number (N.Oc/B.Pm), and the osteoclast surface area (Oc.S/BS) increased, respectively, to approximately 1.2-fold (p<0.04), approximately 1.8-fold (p<0.001), approximately 1.9-fold (p<0.001), and approximately 1.8-fold (p<0.001) as high as those for the control group (FIGS. 32 to 35). In addition, the sections obtained in this Example were subjected to TRAP staining. […] That is, the osteopenia mechanism induced by GST-RANKL administration involves promotion of bone resorption, but not reduction in osteogenesis. However, the aforementioned coupling phenomenon causes promotion of osteogenesis depending on the GST-RANKL dose, the number of doses, and the period of time elapsed after administration, which might results in an increase in the osteoblast surface area.

[3] = tested on: 8-week-old female C57BL/6N mice; test: Administration of GST-RANKL to mouse calvaria; format: in vivo; conditions: 3 days
Description: GST-RANKL was administered to the calvaria of groups of 8-week-old female C57BL/6N mice for 3 days. The femur was collected from each mouse on day 5 day after the initiation of experimentation. The femur bone density was evaluated with pQCT. Experimentation was conducted with the use of the following three experimental groups: the experimental group 1 subjected to administration of GST-RANKL at 0.5 mg/kg twice daily; the experimental group 2 subjected to administration of GST-RANKL at 1 mg/kg once daily; and the PBS group serving as a control group for comparison and being subjected to PBS administration. Cancellous bone density measurement was carried out at points 0.6 mm, 0.8 mm, and 1.0 mm from the distal growth plate on the proximal side of the collected femur with pQCT.

GST-RANKL: fused protein of Glutathione S-transferase with human RANKL residues 140-317, expressed in Escherichia coli, 47.0 kDa
serum ALP concentration increase vs PBS+Sham (day 27) group (female C57BL/6N mice; GST-RANKL administration OVX (day 27) group): approximately 40%
femur bone density decrease vs PBS+Sham (day 27) (female C57BL/6N mice; GST-RANKL+OVX (day 27), 0.6 mm): approximately 4%
femur bone density decrease vs PBS+Sham (day 27) (female C57BL/6N mice; GST-RANKL+OVX (day 27), 0.8 mm): approximately 13%
femur bone density decrease vs PBS+Sham (day 27) (female C57BL/6N mice; GST-RANKL+OVX (day 27), 1.0 mm): approximately 15%
femur bone density decrease vs PBS+Sham (day 27) (female C57BL/6N mice; GST-RANKL+Sham (day 27), 0.6 mm): approximately 7%
femur bone density decrease vs PBS+Sham (day 27) (female C57BL/6N mice; GST-RANKL+Sham (day 27), 0.8 mm): approximately 14%
femur bone density decrease vs PBS+Sham (day 27) (female C57BL/6N mice; GST-RANKL+Sham (day 27), 1.0 mm): approximately 16%
serum TRAP-5b concentration, fold as high as PBS+Sham (day 27) group (female C57BL/6N mice; every GST-RANKL administration group, 1 mg/kg i.p. twice, no significant difference): approximately 1.8 fold
serum ALP concentration decrease ([1]; single dose 1 mg/kg): approximately 30%
serum Ca concentration ([1]; single dose 1 mg/kg i.p.): no changes
serum human RANKL concentration ([1]; single dose 1 mg/kg i.p., 24 hours later): undetectable
time of peak serum human RANKL concentration after administration ([1]; single dose 1 mg/kg i.p., ELISA): 4 h
serum TRAP-5b concentration, fold as high as control ([1]; single dose 1 mg/kg, 12 hours after administration): approximately 1.7 fold
femur bone density decrease vs control ([1]; 24 hours, 0.6 mm): approximately 4%
femur bone density decrease vs control ([1]; 24 hours, 0.8 mm): approximately 9%
femur bone density decrease vs control ([1]; 24 hours, 1.0 mm): approximately 12%
femur bone density decrease vs control ([1]; 48 hours, 0.6 mm): approximately 5%
femur bone density decrease vs control ([1]; 48 hours, 0.8 mm): approximately 9%
femur bone density decrease vs control ([1]; 48 hours, 1.0 mm): approximately 15%
osteoblast surface area [2]: no increase
eroded surface area (ES/BS), fold as high as control ([2]; tibia): approximately 1.8 fold
osteoclast number (N.Oc/B.Pm), fold as high as control ([2]; tibia): approximately 1.9 fold
osteoclast surface area (Oc.S/BS), fold as high as control ([2]; tibia): approximately 1.8 fold
osteoid thickness (O.Th), fold as high as control ([2]; tibia): approximately 1.2 fold
trabecular number (Tb.N) decrease vs control ([2]; tibia): approximately 20%
trabecular width (Tb.Th) decrease vs control ([2]; tibia): approximately 10%
unit bone mass (BV/TV) decrease vs control ([2]; tibia): approximately 30%
osteoclast number by TRAP staining ([2]; tibia sections): greater than that for the control group
femur cancellous bone density vs PBS group ([3]; experimental group 1: 0.5 mg/kg twice daily to the calvarium, at the measurement points): bone density decrease was observed
femur cancellous bone density vs PBS group ([3]; experimental group 2: 1 mg/kg once daily to the calvarium, at 0.8 mm and 1.0 mm): bone density decrease was observed
